Results from ChEMBL document CHEMBL5214893, “Saponins from Saffron Corms Inhibit the Gene Expression and Secretion of Pro-Inflammatory Cytokines” (J Nat Prod, 2021).
Calls of active or inactive are those of the source.

How the values were obtained:
Format in all cases: functional, cell-based
Details in all cases: time 48.0 hrs
[1] = test system: HaCaT; assay: […] of TNF-alpha/IFN-gamma induced MCP-1 expression in human HaCaT cells at 20 uM preincubated for 24 hrs followed by stimulation and measured after […] by ELISA analysis
[2] = test system: HaCaT; assay: Downregulation of TNF-alpha/IFN-gamma induced RANTES expression in human HaCaT cells at 20 uM preincubated for 24 hrs followed by stimulation and measured after […] by ELISA analysis
[3] = test system: HaCaT; assay: Effect on TNF-alpha/IFN-gamma induced- MCP-1 secretion in human HaCaT cells at 1 uM preincubated for 24 hrs followed by stimulation and measured after […] by ELISA analysis
[4] = test system: HaCaT; assay: Effect on TNF-alpha/IFN-gamma-induced RANTES secretion in human HaCaT cells at 1 uM preincubated for 24 hrs followed by stimulation and measured after […] by ELISA analysis
[5] = test system: HaCaT; assay: Effect on TNF-alpha/IFN-gamma-induced RANTES secretion in human HaCaT cells at 20 uM preincubated for 24 hrs followed by stimulation and measured after […] by ELISA analysis

Measured: Activity

C[C@@H]1O[C@@H](OCCCCCCC(=O)CCCCCCC(CC(=O)O[C@@H]2[C@H](O)[C@@H](O[C@@H]3O[C@@H](C)[C@H](O[C@@H]4OC[C@@H](O)[C@H](O)[C@H]4O)[C@@H](O)[C@H]3O[C@@H]3OC[C@H](O)[C@H](O)[C@H]3OC3O[C@H](CO)[C@H](O)[C@H](O)[C@H]3O)[C@H](OC(=O)[C@]34CCC(C)(C)C[C@H]3C3=CC[C@@H]5[C@@]6(C)CC[C@H](O[C@@H]7O[C@H](C(=O)O)[C@H](O)[C@H](O)[C@H]7O)C(C)(C)[C@@H]6CC[C@@]5(C)[C@]3(C)C[C@H]4O)O[C@@H]2C)O[C@H]2O[C@H](C)[C@@H](O)[C@H](O)[C@@H]2O)[C@H](O)[C@H](O)[C@H]1O (stereo partly specified)
not listed: [5]
active: all other assays above

C[C@]12CCC(=O)C=C1CC[C@@H]1[C@@H]2[C@@H](O)C[C@@]2(C)[C@H]1CC[C@]2(O)C(=O)CO
active: [1] | [2] | [5]

C[C@@H]1O[C@@H](OCCCCCCC(=O)CCCCCCC(CC(=O)O[C@@H]2[C@H](O)[C@@H](O[C@@H]3O[C@@H](C)[C@H](O[C@@H]4OC[C@@H](O)[C@H](O)[C@H]4O)[C@@H](O)[C@H]3O[C@@H]3OC[C@H](O)[C@H](O)[C@H]3OC3O[C@H](CO)[C@H](O)[C@H](O)[C@H]3O)[C@H](OC(=O)[C@]34CCC(C)(C)C[C@H]3C3=CC[C@@H]5[C@@]6(C)CC[C@H](O[C@@H]7O[C@H](C(=O)O)[C@@H](O)[C@H](O)[C@H]7O)C(C)(C)[C@@H]6CC[C@@]5(C)[C@]3(C)C[C@H]4O)O[C@@H]2C)O[C@H]2O[C@H](C)[C@@H](O)[C@H](O)[C@@H]2O)[C@H](O)[C@H](O)[C@H]1O (stereo partly specified)
not listed: [5]
active: all other assays above
